In US12709760B2, “KIR 7.1 gene therapy vectors and methods of using the same” (WISCONSIN ALUMNI RESEARCH FOUNDATION, priority 2018, dated 2026):
“Also recorded” adds a separate entry of the source.

How the values were obtained:
[1] = test system: Kir7.1 Trp53Ter protein in CHO-K1 cells; assay: Immunoprecipitation / Western blot of GFP-fused Kir7.1 Trp53Ter protein after read-through; type: cell-based; conditions: Kir7.1-GFP fusion W53X, NB84-treated cells, anti-GFP
[2] = test system: Kir7.1 channel in LCA16 iPSC-RPE cells; assay: Whole-cell patch clamp of LCA16 patient-derived iPSC-RPE cells; type: cell-based, human
Procedure: Electrophysiology. Standard whole cell patch clamp on single cells were performed as described^6 Briefly, the tight monolayer of hiPSC-RPE grown on a 6.5 mm transwell was dissociated into a single cell suspension as follows: the medium in which cells were maintained was completely removed and the cells were washed twice with 0NaCMF solution (135 mM NMDG-Cl, 5 mM KCl, 10 mM HEPES, 10 mM Glucose, 2 mM EDTA-KOH and adjusted to pH 7.4 with NMDG free base). The cells were then incubated with 0NaCMF containing papain (2.5 μl/ml), cysteine (0.3 mg/ml), glutathione (0.25 mg/ml) and taurine (0.05 mg/ml) for 45 mins at 37° C. The cells were rinsed with 0NaCMF solution to remove enzymes, resuspended in HEPES-Ringer's (HR) solution [NaCl (135 mM), KCl (5 mM), CaCl2) (1.8 mM), MgCl2 (1 mM), HEPES (10 mM), D-glucose (10 mM), pH 7.4±0.1 with NaOH, prepared in ddH2O], and kept on ice for up to 8 hrs until used for electrophysiological recording.
Single hiPSC-RPE cells with distinct apical processes were chosen for conventional patch clamping. Patch pipettes with a resistance of […] were fabricated from borosilicate capillaries using a pipet puller (P-1000®, Sutter instruments). The glass electrode was then fire polished using a microforge (MF-830®, Narshige). Data acquisition and the holding potential parameters were controlled using the Clampex® software (Axon instruments). Current recorded from the successful patch was amplified using Axopatch 200-B® (Axon Instruments) and filtered at 2 KHz. The signal was digitized using digidata 1400A® (Axon instruments) and analyzed using Clampfit® (Axon Instruments). During patch clamping, HR solution was continuously perfused as an external solution. The patch pipette was filled with solution containing 30 mM KCl, 83 mM K-gluconate, 5.5 mM EGTA-KOH, 0.05 mM CaCl2), 4 mM MgCl2, 10 mM HEPES, pH adjusted to 7.2 with KOH and filtered using the 0.2 μm filter.

[3] = LCA16 hiPSC-RPE subgroup, 100 or 500 μM NB84

## C[C@@H](O)C1O[C@H](O[C@@H]2C(N)C[C@@H](NC(=O)[C@@H](O)CCN)[C@@H](O)C2O[C@@H]2O[C@H](CN)[C@H](O)C2O)[C@@H](N)C(O)[C@@H]1O (some centres unmarked) [NB84]
[1]
  Full-length Kir7.1 protein product: a protein band equivalent to the full-length product was detected; also recorded: partial restoration of the full-length protein product
[2]; [3]
  Current amplitude rescue in a subpopulation of cells: no rescue in current amplitude
  Membrane potential rescue in a subpopulation of cells: rescue of membrane potential to control levels
[2]; LCA16 iPSC-RPE, 500 μM NB84
  Enhancement of current by Rb+: 10 fold
[2]; LCA16 iPSC-RPE, 500 μM NB84, high external Rb+, −150 mV, n=8
  Current amplitude upon introduction of Rb+: −1562.7±546.7 pA
[2]; LCA16 iPSC-RPE, 500 μM NB84, inward current at −150 mV, n=8
  Kir7.1 current amplitude, normal external K+: −94.3±24 pA
[2]; LCA16 iPSC-RPE, NB84-treated cells, n=10
  Membrane potential: −56.3±3.6 mV
[2]; LCA16 iPSC-RPE, bar graph comparison FIG. 7D
  Resting membrane potential versus control level: recovery of LCA16 iPSC-RPE to control level
